ChEMBL document CHEMBL4190309, “Synthesis, antimicrobial, DNA cleavage and antioxidant activities of tricyclic sultams derived from saccharin” (Eur J Med Chem, 2017)
Values after ≈ are worked out from the molar mass of the structure shown. Active and inactive are the calls of the source. No cut-off for these calls is given here.

Tests used:
[1] = Antioxidant activity assessed as superoxide anion scavenging activity at 2 uM at pH 8.3 by NBT/NADH/PMS assay relative to control; format: functional
[2] = tested on: Staphylococcus aureus; assay: Antibacterial activity against Staphylococcus aureus ATCC 25923 assessed as diameter of inhibition zone at 100 uM after 24 hrs by cup diffusion method; format: functional; settings: ATCC 25923, 24 h, read-out: DIZ
[3] = Antioxidant activity assessed as ABTS radical scavenging activity at 2 uM by spectrophotometric analysis; format: functional
[4] = tested on: DNA; assay: Induction of Escherichia coli DNA cleavage at 2 uM after 1 hr by […] staining-based agarose gel electrophoresis; format: nucleic-acid assay
[5] = tested on: DNA; assay: Induction of Escherichia coli DNA cleavage after 1 hr by […] staining-based agarose gel electrophoresis; format: nucleic-acid assay
[6] = Antioxidant activity assessed as superoxide anion scavenging activity at pH 8.3 by NBT/NADH/PMS assay; format: functional
[7] = tested on: Escherichia coli; assay: Antibacterial activity against Escherichia coli ATCC 25922 assessed as diameter of inhibition zone at 100 uM after 24 hrs by cup diffusion method; format: functional; settings: ATCC 25922, 24 h, read-out: DIZ
[8] = tested on: DNA; assay: Induction of Escherichia coli DNA cleavage at 10 to 12 uM after 1 hr by […] staining-based agarose gel electrophoresis; format: nucleic-acid assay
[9] = tested on: Pseudomonas aeruginosa; assay: Antibacterial activity against Pseudomonas aeruginosa ATCC 27853 after 24 hrs by serial dilution method; format: functional; settings: ATCC 27853, 24 h
[10] = tested on: Escherichia coli; assay: Antibacterial activity against Escherichia coli ATCC 25922 after 24 hrs by serial dilution method; format: functional; settings: ATCC 25922, 24 h
[11] = tested on: Staphylococcus aureus; assay: Antibacterial activity against Staphylococcus aureus ATCC 25923 after 24 hrs by serial dilution method; format: functional; settings: ATCC 25923, 24 h
[12] = tested on: Priestia megaterium; assay: Antibacterial activity against Bacillus megaterium ATCC 14591 assessed as diameter of inhibition zone at 100 uM after 24 hrs by cup diffusion method; format: functional; settings: ATCC 14591, 24 h, read-out: DIZ
[13] = Antiproliferative activity against hepatic cancer cells (unknown origin) at 50 uM by MTT assay relative to control; format: functional
[14] = tested on: Pseudomonas aeruginosa; assay: Antibacterial activity against Pseudomonas aeruginosa ATCC 27853 assessed as diameter of inhibition zone at 100 uM after 24 hrs by cup diffusion method; format: functional; settings: ATCC 27853, 24 h, read-out: DIZ
[15] = tested on: DNA; assay: Induction of Escherichia coli DNA cleavage at 8 uM after 1 hr by […] staining-based agarose gel electrophoresis; format: nucleic-acid assay
[16] = tested on: DNA; assay: Induction of Escherichia coli DNA cleavage at 6 uM after 1 hr by […] staining-based agarose gel electrophoresis; format: nucleic-acid assay
[17] = tested on: DNA; assay: Induction of Escherichia coli DNA cleavage at 4 uM after 1 hr by […] staining-based agarose gel electrophoresis; format: nucleic-acid assay

SMILES	Activity [1]	zone of inhibition at 100 µM [2]	Activity [3]	Activity [4]	Activity [5]	Activity [6]	IC50 [6]	zone of inhibition at 100 µM [7]	Activity [8]	MIC [9]	MIC [10]	MIC [11]	zone of inhibition at 100 µM [12]	Activity [13]	zone of inhibition at 100 µM [14]	Activity [15]	Activity [16]	Activity [17]
O=C(Nc1ccccc1)C1=C2c3ccccc3S(=O)(=O)N2CC1	44.8%	14 mm	46.9%	inactive	Dose-dependent effect	Dose-dependent effect	2.23 µM	13 mm	Active	28 µg/mL (≈ 85.8 µM)	21 µg/mL (≈ 64.3 µM)	16 µg/mL (≈ 49 µM)	12 mm	58.6%	12 mm	–	–	–
O=C(OCCCl)C1=C2c3ccccc3S(=O)(=O)N2CC1	63.1%	20 mm	64.8%	inactive	Dose-dependent effect	Dose-dependent effect	1.58 µM	17 mm	Active	20 µg/mL (≈ 63.7 µM)	21 µg/mL (≈ 66.9 µM)	8 µg/mL (≈ 25.5 µM)	20 mm	59.6%	18 mm	Active	Active	Active
CN[C@H](CC(C)C)C(=O)N[C@H]1C(=O)N[C@@H](CC(N)=O)C(=O)N[C@H]2C(=O)N[C@H]3C(=O)N[C@H](C(=O)N[C@H](C(=O)O)c4cc(O)cc(O)c4-c4cc3ccc4O)[C@H](O)c3ccc(c(Cl)c3)Oc3cc2cc(c3O[C@@H]2O[C@H](CO)[C@@H](O)[C@H](O)[C@H]2O[C@H]2C[C@](C)(N)[C@H](O)[C@H](C)O2)Oc2ccc(cc2Cl)[C@H]1O [VANCOMYCIN]	–	–	–	–	–	–	–	–	–	–	–	14 µg/mL (≈ 9.66 µM)	–	–	–	–	–	–
Cc1ccccc1NC(=O)C1=C2c3ccccc3S(=O)(=O)N2CC1	61.7%	19 mm	62.5%	inactive	Dose-dependent effect	Dose-dependent effect	1.62 µM	17 mm	Active	17 µg/mL (≈ 49.9 µM)	11 µg/mL (≈ 32.3 µM)	12 µg/mL (≈ 35.3 µM)	20 mm	49.6%	18 mm	–	Active	Active
CC1(C)S[C@@H]2[C@H](NC(=O)[C@H](N)c3ccccc3)C(=O)N2[C@H]1C(=O)O [AMPICILLIN]	–	23 mm	–	–	–	–	–	19 mm	–	–	–	–	21 mm	–	20 mm	–	–	–
